Data published in patent publication US11918626B2, “Vasointestinal peptide receptor inhibitors for enhancement of gastrointestinal health” (New York University, priority 2019, dated 2024).

What was measured:
C. rodentium [1] = experiment: C. rodentium infection of Vip-IRES-Cre hM4Di mice (VIPen inhibition); assay type: in vivo, Citrobacter rodentium; settings: 1 mg/Kg daily 1-4 d.p.i., 4×10^10 CFU, 9 d.p.i., mice positive/total
Description: (§1) To perform chemogenetic activation or inhibition of VIPen, we bred VIP^IRES-Cre homozygous mice to hM3Dq^fl-stop-fl mice (DREADD for activation) or hM4Di^fl-stop-fl bp-mice (DREADD for inhibition), generating VIP^IRES-Cre hM3Dq^fl-stop-fl (VIPen activation) and VIP^IRES-Cre hM3Dq^fl-stop-flhM4Di^fl-stop-fl mice (VIPen inhibition). To perform 24 h activation of the DREADDs, mice were treated with Clozapine-N-Oxide (CNO, 1 mg/Kg intraperitoneally, TOCRIS) each 12 h. […] To perform activation of the DREADDs during Citrobacter rodentium infection, mice were treated daily with CNO (1 mg/Kg, intraperitoneally) from day 1 to day 4 after infection.
C. rodentium strain DBS100 (ATCC51459; American Type Culture Collection) was grown at 37° C. in LB broth to OD600 reading between 0.5 and 0.7. VIP^IRES-CrehM3Dq^fl-stop-fl (VIPen activation) and C57BL/6 mice were inoculated with 200 μl of a bacterial suspension (2×10^9 CFU) by oral gavage. VIP^IRES-Cre hM3Dq^fl-stop-flhM4Di^fl-stop-fl mice (VIPen inhibition) were inoculated with 200 μl of a bacterial suspension (4×10^10 CFU) by oral gavage. For DREADD experiments, CNO treatment started at 1 day post-infection (d.p.i.) until 4 d.p.i. Mice were followed the next 12 days post-infection (d.p.i.) to measure survival rate. At 9 d.p.i. fecal pellets were collected and the mice dissected to harvest spleen and liver. […]

hM4Di = biological target: T1, hM4Di (Homo sapiens, UniProt P08173, A203G/Y113C); experiment: VIPen inhibition with inhibitory DREADD (hM4Di), 24 h; assay type: in vivo, mice; settings: versus vehicle
T1 construct: host or cells: VIP-producing enteric neurons of Vip-IRES-Cre x hM4Di fl-stop-fl transgenic mice (in vivo)
T1 sequence (P08173 1-479 Y113C/A203G): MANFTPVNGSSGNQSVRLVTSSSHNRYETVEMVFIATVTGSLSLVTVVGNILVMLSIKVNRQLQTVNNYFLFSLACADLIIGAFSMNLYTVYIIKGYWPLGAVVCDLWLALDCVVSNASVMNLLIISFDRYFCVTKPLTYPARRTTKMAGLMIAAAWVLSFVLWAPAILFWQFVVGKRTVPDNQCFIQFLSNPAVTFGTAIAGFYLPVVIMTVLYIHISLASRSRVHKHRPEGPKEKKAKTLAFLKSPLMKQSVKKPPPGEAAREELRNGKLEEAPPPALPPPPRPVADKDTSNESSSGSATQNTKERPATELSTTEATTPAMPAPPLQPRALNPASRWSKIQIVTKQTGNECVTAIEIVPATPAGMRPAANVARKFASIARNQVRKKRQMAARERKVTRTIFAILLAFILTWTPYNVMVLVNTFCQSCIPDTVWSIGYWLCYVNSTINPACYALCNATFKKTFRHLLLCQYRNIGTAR
Description: as §1, with “infection. […]” for “infection.”
(§2) Live/dead fixable blue (ThermoFisher) or DAPI (ThermoFisher) were used to exclude dead cells. […] Flow cytometric analysis was performed on an LSR II (BD Biosciences) or an Aria II (BD Biosciences) and analyzed using FlowJo software version 10 (Tree Star).
(§3) TRNA isolation of ileal epithelial cells was performed using TRIzol following manufacturer's instructions (Invitrogen) followed by DNase I (Qiagen) treatment and cleanup with RNeasy MinElute kit (Qiagen) following manufacturer protocols. cDNA was generated using SuperScript™ IV First-Strand Synthesis System (ThermoFisher). […] Quantitative PCR was performed using the Hot Start-IT SYBRGreen (Affymetrix) on the Roche real-time PCR system (Roche 480). […]

hM3Dq = biological target: T2, hM3Dq (Homo sapiens, UniProt P20309, A239G/Y149C); experiment: VIPen activation with activating DREADD (hM3Dq), 24 h; assay type: in vivo, mice; settings: following VIPen activation, versus vehicle
T2 construct: host or cells: VIP-producing enteric neurons of Vip-IRES-Cre x hM3Dq fl-stop-fl transgenic mice (in vivo)
Description: as §1, with “infection. […]” for “infection.”
as §2, §3

ILC3 = experiment: Pilot experiments with CNO in C57BL/6 mice; assay type: in vivo; settings: 1 mg/Kg intraperitoneally each 12 h, C57BL/6 mice without DREADD, data not shown
C. rodentium [2] = experiment: C. rodentium infection of Vip-IRES-Cre hM3Dq mice (VIPen activation); assay type: in vivo, Citrobacter rodentium; settings: for bacterial dissemination (translocation) induced by VIPen activation / mortality induced by VIPen activation: 250 pg/mouse/day, C. rodentium-infected hM3Dq mice with VIPen activation
Description: as §1
C. rodentium strain DBS100 (ATCC51459; American Type Culture Collection) was grown at 37° C. in LB broth to OD600 reading between 0.5 and 0.7. VIP^IRES-CrehM3Dq^fl-stop-fl (VIPen activation) and C57BL/6 mice were inoculated with 200 μl of a bacterial suspension (2×10^9 CFU) by oral gavage. VIP^IRES-Cre hM3Dq^fl-stop-flhM4Di^fl-stop-fl mice (VIPen inhibition) were inoculated with 200 μl of a bacterial suspension (4×10^10 CFU) by oral gavage. For DREADD experiments, CNO treatment started at 1 day post-infection (d.p.i.) until 4 d.p.i. Mice were followed the next 12 days post-infection (d.p.i.) to measure survival rate. At 9 d.p.i. fecal pellets were collected and the mice dissected to harvest spleen and liver. Samples were weighted and minced on sterile deionized water with Triton 0.1% and filtered on a 70 μm cell strainer. The filtered samples were used to measure C. rodentium burden with serial dilutions (triplicates) on MacConkey agar plates.

VIPR2 = biological target: T3, VIPR2 (Mus musculus, UniProt P41588); experiment: ILC3 in vitro cell culture with VIPR2 ligands, IL-22 and Sca-1 by flow cytometry; assay type: cell-based, mice; settings: IL-23 100 pg/mL, 12 h, different concentrations of ligand
T3 construct: endogenous in cells; host or cells: primary CCR6+ ILC3 sorted from small-intestine lamina propria of C57BL/6 mice
T3 sequence (P41588 23-437): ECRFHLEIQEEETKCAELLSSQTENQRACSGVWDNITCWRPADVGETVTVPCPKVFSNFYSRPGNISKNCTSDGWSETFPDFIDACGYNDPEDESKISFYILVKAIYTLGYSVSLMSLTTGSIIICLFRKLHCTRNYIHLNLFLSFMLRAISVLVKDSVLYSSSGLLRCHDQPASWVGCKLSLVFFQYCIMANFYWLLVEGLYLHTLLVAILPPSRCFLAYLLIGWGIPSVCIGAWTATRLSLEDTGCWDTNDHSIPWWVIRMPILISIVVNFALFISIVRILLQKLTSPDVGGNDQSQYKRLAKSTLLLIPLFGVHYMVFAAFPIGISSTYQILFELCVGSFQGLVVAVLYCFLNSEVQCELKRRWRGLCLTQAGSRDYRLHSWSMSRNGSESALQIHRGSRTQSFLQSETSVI
Description: CCR6^+ and CCR6^neg ILC3 (DAPI^negCD3^negCD11c^negCD14^negCD19^negTCRβ^negTCRγ^negNK1.19KLRG1^negCD127^+CD90.2^+) were isolated from small intestine LPLs of C57BL/6 mice using the ARIA II FACS Sorter (BD Biosciences). ILC3 were cultured at 37° C. in flat bottom 96 well plates (10^4 cells/well) in RPMI supplemented with 10% heat-inactivated FBS (Hyclone), 50 U penicillin-streptomycin (Hyclone), 2 mM glutamine (Hyclone), 10 mM HEPES (Hyclone), 1 mM sodium pyruvate (Hyclone) and 50 μM β-mercaptoethanol (Gibco). ILC3 were stimulated with IL-23 (100 pg/mL, R&D systems) and/or VIPR2 ligands (BAY-559837: 1-100 nM, and VIP: 1 nM, […]), washed, incubated in complete media in the presence of Golgi Plug (BD Bioscience) for 4 h (37° C.), and stained for membrane extracellular markers in Staining Buffer (PBS FBS2% EDTA 5 mM) and for intracellular markers using Cytofix/Cytoperm buffer set following manufacturer's protocol (BD Biosciences). Acquisition of cytometric parameters was performed on an LSRII (BD Biosciences). All data were analyzed using FlowJo Software Version 10 (Tree Star).
as §2

[3] = 1 mg/Kg daily 1-4 d.p.i., 2×10^9 CFU, 9 d.p.i., mice positive/total
[4] = listed as recombinant murine IL-22

T2 sequence (P20309 whole entry Y149C/A239G): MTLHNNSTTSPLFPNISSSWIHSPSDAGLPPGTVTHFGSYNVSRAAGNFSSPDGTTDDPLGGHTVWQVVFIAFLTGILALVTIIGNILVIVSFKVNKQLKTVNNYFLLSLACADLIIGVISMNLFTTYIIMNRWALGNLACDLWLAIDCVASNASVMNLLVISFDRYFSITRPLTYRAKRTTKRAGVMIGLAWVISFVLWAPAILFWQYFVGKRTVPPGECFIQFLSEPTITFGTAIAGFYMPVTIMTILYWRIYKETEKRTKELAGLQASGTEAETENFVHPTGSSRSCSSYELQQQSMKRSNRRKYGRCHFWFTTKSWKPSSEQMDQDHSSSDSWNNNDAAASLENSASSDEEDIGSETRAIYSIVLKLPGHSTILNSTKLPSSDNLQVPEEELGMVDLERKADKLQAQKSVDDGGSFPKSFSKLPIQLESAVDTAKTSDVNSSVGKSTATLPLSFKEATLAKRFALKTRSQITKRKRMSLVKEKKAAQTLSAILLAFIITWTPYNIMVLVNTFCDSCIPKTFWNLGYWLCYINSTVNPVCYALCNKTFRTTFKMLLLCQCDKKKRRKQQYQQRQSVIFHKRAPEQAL

Molecule: C[N+]1([O-])CCN(C2=Nc3cc(Cl)ccc3Nc3ccccc32)CC1 [CNO, Clozapine-N-oxide]
- Positive for C. rodentium: liver (C. rodentium [1]): 1/7
- Positive for C. rodentium: spleen (C. rodentium [1]): 1/7
- RegIIIγ mRNA expression in the IECs (hM4Di; after VIPen inhibition, 24 h): increased
- frequency of IL-22-producing CCR6+ ILC3 (hM4Di; ileum, 24 h following VIPen inhibition): higher frequency
- IL-22+ cells among the CCR6+ ILC3 (hM3Dq): fewer
- RegIIIγ mRNA in IECs (hM3Dq): lower
- ILC3 function (ILC3): does not affect
- Positive for C. rodentium: liver (C. rodentium [2]; [3]): 9/9
- Positive for C. rodentium: spleen (C. rodentium [2]; [3]): 9/9

Molecule: vasoactive intestinal peptide [VIP]
- IL-23-induced Sca-1 expression on CCR6+ ILC3 (VIPR2): does not modulate

B1: rmIL-22: recombinant murine IL-22 (protein, UniProt Q9JJY9 34-179, looked up)
Interleukin-22: LPVNTRCKLEVSNFQQPYIVNRTFMLAKEASLADNNTDVRLIGEKLFRGVSAKDQCYLMKQVLNFTLEDVLLPQSDRFQPYMQEVVPFLTKLSNQLSSCHISGDDQNIQKNVRRLKETVKKLGESGEIKAIGELDLLFMSLRNACV
- bacterial dissemination (translocation) induced by VIPen activation (C. rodentium [2]): protects against increase
- mortality induced by VIPen activation (C. rodentium [2]): protects against increase
- bacterial dissemination (translocation) induced by VIPen activation (C. rodentium [2]; [4]): reversed the effect
- mortality induced by VIPen activation (C. rodentium [2]; [4]): reversed the effect
